Columns and labels:
[1] = tested on: C. albicans clinical isolate (CaCi2); test: Antifungal sensitivity testing; format: cell-based; conditions: CaCi2, cultures spotted on compound-free YPD agar, 30 °C, 24 h
C. albicans Hsp90 NBD = conditions: cited from earlier work
Hsp90 = Hsp90 (Candida albicans, UniProt P46598); test: biochemical
[2] = tested on: C. neoformans (Strain H99); conditions: H99, RPMI 1640, 37 °C (Fig. 4A)

Sequence of Hsp90 (P46598 whole entry): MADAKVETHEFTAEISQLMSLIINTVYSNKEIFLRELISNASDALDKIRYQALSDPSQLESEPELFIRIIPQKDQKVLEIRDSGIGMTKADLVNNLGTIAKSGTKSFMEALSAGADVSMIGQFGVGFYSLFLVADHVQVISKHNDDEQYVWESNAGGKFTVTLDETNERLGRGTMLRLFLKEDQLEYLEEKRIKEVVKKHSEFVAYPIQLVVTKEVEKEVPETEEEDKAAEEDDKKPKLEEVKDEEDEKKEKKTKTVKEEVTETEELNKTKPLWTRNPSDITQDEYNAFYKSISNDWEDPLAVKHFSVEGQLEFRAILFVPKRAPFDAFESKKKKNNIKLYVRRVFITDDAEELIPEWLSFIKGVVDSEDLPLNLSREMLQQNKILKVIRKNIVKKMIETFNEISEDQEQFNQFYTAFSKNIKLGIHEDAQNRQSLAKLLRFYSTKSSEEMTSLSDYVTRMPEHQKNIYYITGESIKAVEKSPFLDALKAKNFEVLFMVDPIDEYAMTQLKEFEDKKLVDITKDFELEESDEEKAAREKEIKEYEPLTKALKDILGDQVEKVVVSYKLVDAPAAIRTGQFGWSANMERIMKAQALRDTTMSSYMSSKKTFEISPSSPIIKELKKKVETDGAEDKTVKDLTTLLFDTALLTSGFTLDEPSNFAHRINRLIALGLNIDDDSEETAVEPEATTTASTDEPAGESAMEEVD

COc1ccc(Cn2nc(-c3ccccc3)cc2Nc2cc(O)cc(O)c2C(=O)N2Cc3ccccc3C2)cc1 [Compound 21, 4-(2,3-dihydro-1H-isoindole-2-carbonyl)-5-((1-((4-methoxyphenyl)methyl)-3-phenyl-1H-pyrazol-5-yl)amino)benzene-1,3-diol]
fungicidal activity in combination with fluconazole [1]: fungicidal activity

Cn1nc(-c2ccc(OC(F)(F)F)cc2)cc1Nc1cc(O)cc(O)c1C(=O)N1Cc2ccccc2C1 [Compound 130, 4-(2,3-Dihydro-1H-isoindole-2-carbonyl)-5-((1-methyl-3-(4-(trifluoromethoxy)phenyl)-1H-pyrazol-5-yl)amino)benzene-1,3-diol]
fungicidal activity in combination with fluconazole [1]: fungicidal

COc1ccc(CO\N=C2/C=C/C=C\[C@H]3O[C@@H]3C[C@@H](C)OC(=O)c3c(O)cc(O)cc3C2)cc1 [CMLD013075]
binding selectivity for the C. albicans Hsp90 NBD compared to the human ortholog (C. albicans Hsp90 NBD): > 25 fold

COc1ccc(Cn2nc(-c3ccccc3)cc2Nc2cc(O)cc(O)c2C(=O)N(C)CC2CC2)cc1 [Compound 31, N-(Cyclopropylmethyl)-2,4-dihydroxy-6-((1-((4-methoxyphenyl)methyl)-3-phenyl-1H-pyrazol-5-yl)amino)-N-methylbenzamide]
EC50 (Hsp90): > 9 µM

COc1ccc(Cn2nc(C)cc2Nc2cc(O)cc(O)c2C(=O)N(C)CC2CC2)cc1 [Compound 30, N-(Cyclopropylmethyl)-2,4-dihydroxy-6-((1-((4-methoxyphenyl)methyl)-3-methyl-1H-pyrazol-5-yl)amino)-N-methylbenzamide]
EC50 (Hsp90): > 9 µM

COc1ccc(Cn2ncc(C)c2Nc2cc(O)cc(O)c2C(=O)N2Cc3ccccc3C2)cc1 [Compound 41, 4-(2,3-Dihydro-1H-isoindole-2-carbonyl)-5-((1-((4-methoxyphenyl)methyl)-4-methyl-1H-pyrazol-5-yl)amino)benzene-1,3-diol]
fungicidal activity in combination with fluconazole [1]: fungicidal activity

COc1ccc(Cn2nc(C)cc2Nc2cc(O)cc(O)c2C(=O)N(C)Cc2ccccc2)cc1 [Compound 37, N-Benzyl-2,4-dihydroxy-6-((1-((4-methoxyphenyl)methyl)-3-methyl-1H-pyrazol-5-yl)amino)-N-methylbenzamide]
EC50 (Hsp90): > 6 µM

Cc1cc(Nc2cc(O)cc(O)c2C(=O)N2Cc3ccccc3C2)n(Cc2ccccc2Cl)n1 [Compound 89, 5-((1-((2-Chlorophenyl)methyl)-3-methyl-1H-pyrazol-5-yl)amino)-4-(2,3-dihydro-1H-isoindole-2-carbonyl)benzene-1,3-diol]
fungicidal activity in combination with fluconazole [1]: fungicidal activity

CCN(CC)C(=O)c1c(O)cc(O)cc1Nc1cc(-c2ccccc2)nn1Cc1ccc(OC)cc1 [Compound 39, N,N-Diethyl-2,4-dihydroxy-6-((1-((4-methoxyphenyl)methyl)-3-phenyl-1H-pyrazol-5-yl)amino)benzamide]
EC50 (Hsp90): > 10 µM

Cc1ccccc1-c1cc(Nc2cc(O)cc(O)c2C(=O)N2Cc3ccccc3C2)n(C)n1 [Compound 106, 4-(2,3-Dihydro-1H-isoindole-2-carbonyl)-5-((1-methyl-3-(2-methylphenyl)-1H-pyrazol-5-yl)amino)benzene-1,3-diol]
concentration inhibiting growth of C. neoformans [2]: below 10 μM

— paper PMC7069776 (Journal of medicinal chemistry, 2019)
